# Measured values as given in patent publication US12268690B2, “Treatments for mutations in acute myeloid leukemia” (OREGON HEALTH & SCIENCE UNIVERSITY, priority 2018, dated 2025).
# Test system: freshly isolated mononuclear cells from AML samples
# Assay: Ex vivo functional drug screen (MTS viability, AUC) on primary AML samples, compared by mutation or clinical group
# Type: cell-based, human
# Conditions: for drug sensitivity of mutant cases: BCOR mutation alone
# From the text: This panel contained graded concentrations of a drugs with activity against two-thirds of the tyrosine kinome as well as other non-tyrosine kinase pathways, including MAPKs, PI3K/AKT/mTOR, AMPK, ATM, Aurora kinases, CAMKs, CDKs, GSK3a/b, IκK, PKA, PKC, PLK1, and RAF. In addition, the library contained small molecule inhibitors with activity against the BCL2 family, BRD4, Hedgehog, HSP90, NOTCH/gamma-secretase, proteasome, survivin, STAT3, and WNT/beta-catenin. Drug sensitivity patterns were analyzed with respect to clinical and genetic features of tumors. We compared the average area-under-the curve (AUC) values for each drug between the de novo and transformed samples via a series of single factor ANOVAs. […] In addition, we analyzed the concordance of drug sensitivity patterns with respect to predicted target gene, gene family, or pathway for each drug. […] To create a global view of overall sensitivity or resistance of each case, we generated a heatmap of binary sensitive/resistant calls for each sample to each drug.
# Correlation of drug sensitivity with mutational events was performed by assessing the range of sensitivity of cases with mutation of an individual gene (as well as co-occurring mutational events) versus cases with wild type sequence for that same gene. […] The difference in average drug sensitivity of mutant versus wild type cases for each drug/mutation pair was plotted on the horizontal axis of a volcano plot with a test for statistical significance of the comparison plotted on the vertical axis (corrected for multiple comparison false discovery rate^42; FIG. 4). […] To aid in discovery of potential mutational biomarkers of drug sensitivity, we plotted volcano plots that were specific to each individual drug (versus all possible mutational events) and for each individual gene (versus all possible drugs tested).
# Ex vivo drug screens were performed on freshly isolated mononuclear cells from AML samples as previously described^41.
# Ex vivo functional drug screens were performed on freshly isolated mononuclear cells from AML samples. […] Drug plates were created using inhibitors purchased from LC Laboratories and Selleck Chemicals and master stocks were reconstituted in DMSO and stored at −80° C. […] DMSO control wells and positive control wells containing a drug combination of Flavopiridol, Staurosporine and Velcade were placed on each plate, with the final concentration of DMSO ≤0.1% in all wells. Daughter plates were created using a V&P Scientific 384-well pin tool head operated by the Caliper Sciclone ALH 3000 and equipped with 0.457 mm diameter, 30 nanoliter, slotted stainless steel pins (cat num: FP1NS30). Daughter and destination plates were sealed with pealable thermal seals using a PlateLoc thermal sealer. Destination plates were stored at −20° C. for no more than three months and thawed immediately before use. Primary mononuclear cells were plated across single-agent inhibitor panels within 24 h of collection. […] After 3 d of culture at 37° C. in 5% CO2, MTS reagent (CellTiter96 AQueous One; Promega) was added, optical density was measured at 490 nm, and raw absorbance values were adjusted to a reference blank value and then used to determine cell viability (normalized to untreated control wells).
# A given sample was run on one or more panels and within each panel, the majority of drugs were run without within-panel replicates. […] An additional set of ‘curve-free’ AUCs was computed for sample-inhibitor pairs run on multiple panels.
# Based on the methodology used in our prior drug combination study^36, a probit regression was fit to all possible run groups using the model: (normalized_viability/100)˜1+log 10(concentration) Where for all groups there were N=7 dose-response measurements. The summary measures of curve fit were inspected and cutoffs were devised removing all runs with an AIC >12 and deviance >2.
smiles,measurement,setting,value
CNC(=O)c1cc(Oc2ccc(NC(=O)Nc3ccc(Cl)c(C(F)(F)F)c3)cc2)ccn1 [Sorafenib],drug sensitivity mutant vs wild type (average difference in AUC; top left quadrant of volcano plot),DNMT3A,Sorafenib
same,drug sensitivity mutant vs wild type (average difference in AUC; top left quadrant of volcano plot),NPM1,Sorafenib
same,drug sensitivity mutant vs wild type (average difference in AUC; top left quadrant of volcano plot),NPM1:DNMT3A,Sorafenib
same,drug sensitivity mutant vs wild type (average difference in AUC; top left quadrant of volcano plot),NPM1:IDH2,sorafenib
same,drug sensitivity mutant vs wild type (average difference in AUC; top left quadrant of volcano plot),NPM1:SRSF2,sorafenib
same,drug sensitivity mutant vs wild type (average difference in AUC; top left quadrant of volcano plot),NPM1:TET2,Sorafenib
Cc1ccc(NC(=O)c2ccc(CN3CCN(C)CC3)cc2)cc1Nc1nc(-c2cccnc2)cs1 [Masitinib],drug sensitivity mutant vs wild type (average difference in AUC; top left quadrant of volcano plot),FLT3_ITD:TET2,masitinb
same,drug sensitivity mutant vs wild type (average difference in AUC; top left quadrant of volcano plot),FLT3_ITD_IHD2,masitinib
same,drug sensitivity mutant vs wild type (average difference in AUC; top left quadrant of volcano plot),IDH2,Masitinib
same,drug sensitivity mutant vs wild type (average difference in AUC; top left quadrant of volcano plot),NPM1:SRSF2,Masitinb
same,drug sensitivity mutant vs wild type (average difference in AUC; top left quadrant of volcano plot),SMC1A,Masitinib
"O=c1[nH]c(-c2ccc(C(F)(F)F)cc2)nc2c1CSCC2 [XAV-939, 3,5,7,8-Tetrahydro-2-[4-(trifluoromethyl)phenyl]-4H-thiopyrano[4,3-d]pyrimidin-4-one]",drug sensitivity mutant vs wild type (average difference in AUC; top left quadrant of volcano plot),BCOR,XAV-939
same,drug sensitivity of mutant cases,,did show sensitivity
same,drug sensitivity mutant vs wild type (average difference in AUC; top left quadrant of volcano plot),BCOR:ASXL1,XAV-939
same,drug sensitivity mutant vs wild type (average difference in AUC; top left quadrant of volcano plot),BCOR:DNMT3A,XAV-939
same,drug sensitivity mutant vs wild type (average difference in AUC; top left quadrant of volcano plot),BCOR:SRSF2,XAV-939
O=C(NOCC1CC1)c1ccc(F)c(F)c1Nc1ccc(I)cc1Cl [CI-1040],drug sensitivity mutant vs wild type (average difference in AUC; top left quadrant of volcano plot),DNMT3A:NRAS,CI-1040 (PD184352)
same,drug sensitivity mutant vs wild type (average difference in AUC; top left quadrant of volcano plot),NPM1:DNMT3A:NRAS,CI-1040
same,drug sensitivity mutant vs wild type (average difference in AUC; top left quadrant of volcano plot),NPM1:NRAS,CI-1040 (PD184352)
same,drug sensitivity mutant vs wild type (average difference in AUC; top left quadrant of volcano plot),NRAS,CI-1040
CS(=O)(=O)CCNCc1ccc(-c2ccc3ncnc(Nc4ccc(OCc5cccc(F)c5)c(Cl)c4)c3c2)o1 [Lapatinib],drug sensitivity mutant vs wild type (average difference in AUC; top left quadrant of volcano plot),FLT3_ITD_IHD2,lapitinib
same,drug sensitivity mutant vs wild type (average difference in AUC; top left quadrant of volcano plot),NPM1,Lapatinib
same,drug sensitivity mutant vs wild type (average difference in AUC; top left quadrant of volcano plot),NPM1:FLT3_ITD,lapatinib
same,drug sensitivity mutant vs wild type (average difference in AUC; top left quadrant of volcano plot),NPM1:IDH2,Lapatinib
same,drug sensitivity mutant vs wild type (average difference in AUC; top left quadrant of volcano plot),NPM1:SRSF2,Lapatinib
same,drug sensitivity mutant vs wild type (average difference in AUC; top left quadrant of volcano plot),SMC1A,lapatinib
CC[C@H](CO)Nc1nc(NCc2ccccc2)c2ncn(C(C)C)c2n1 [Roscovitine],drug sensitivity mutant vs wild type (average difference in AUC; top left quadrant of volcano plot),FLT3_ITD,roscovitine
same,drug sensitivity mutant vs wild type (average difference in AUC; top left quadrant of volcano plot),NPM1:IDH1,roscovitine
same,drug sensitivity mutant vs wild type (average difference in AUC; top left quadrant of volcano plot),ZRSR2,Roscovitine
CN(C)CC[C@H](CSc1ccccc1)Nc1ccc(S(=O)(=O)NC(=O)c2ccc(N3CCN(Cc4ccccc4-c4ccc(Cl)cc4)CC3)cc2)cc1[N+](=O)[O-] [ABT-737],drug sensitivity mutant vs wild type (average difference in AUC; top left quadrant of volcano plot),PML.RARA,ABT-737
C[C@@H](Oc1cc(-c2cnn(C3CCNCC3)c2)cnc1N)c1c(Cl)ccc(F)c1Cl [Crizotinib],drug sensitivity mutant vs wild type (average difference in AUC; top left quadrant of volcano plot),BCOR,Crizotinib
same,drug sensitivity of mutant cases,,did show sensitivity
same,drug sensitivity mutant vs wild type (average difference in AUC; top left quadrant of volcano plot),FLT3_ITD,crizotinib
same,drug sensitivity mutant vs wild type (average difference in AUC; top left quadrant of volcano plot),FLT3_ITD:SRSF2,crizotinib
same,drug sensitivity mutant vs wild type (average difference in AUC; top left quadrant of volcano plot),IDH2,Crizotinib
same,drug sensitivity mutant vs wild type (average difference in AUC; top left quadrant of volcano plot),NPM1:CEBPA,Crizotinib
same,drug sensitivity mutant vs wild type (average difference in AUC; top left quadrant of volcano plot),NPM1:FLT3_ITD,crizotinib
same,drug sensitivity mutant vs wild type (average difference in AUC; top left quadrant of volcano plot),SMC1A,crizotinib
same,drug sensitivity mutant vs wild type (average difference in AUC; top left quadrant of volcano plot),SRSF2:IDH2,Crizotinib
NC(=O)c1cnc(N[C@@H]2CCCC[C@@H]2N)nc1Nc1cccc(-n2nccn2)c1 [PRT062607],drug sensitivity mutant vs wild type (average difference in AUC; top left quadrant of volcano plot),NPM1:DNMT3A,PRT062607
COc1cc(N2CCC(N3CCN(C)CC3)CC2)ccc1Nc1ncc(Cl)c(Nc2ccccc2S(=O)(=O)C(C)C)n1 [NVP-TAE684],drug sensitivity mutant vs wild type (average difference in AUC; top left quadrant of volcano plot),FLT3_ITD,NVP-TAE684
same,drug sensitivity mutant vs wild type (average difference in AUC; top left quadrant of volcano plot),FLT3_ITD:DNMT3A,NVP-TAE684
same,drug sensitivity mutant vs wild type (average difference in AUC; top left quadrant of volcano plot),FLT3_ITD:FLT3,nvp-TAE684
same,drug sensitivity mutant vs wild type (average difference in AUC; top left quadrant of volcano plot),FLT3_ITD:RUNX1,nvp-TAE684
same,drug sensitivity mutant vs wild type (average difference in AUC; top left quadrant of volcano plot),FLT3_ITD:TET2,nvp-tae684
same,drug sensitivity mutant vs wild type (average difference in AUC; top left quadrant of volcano plot),FLT3_ITD_IHD2,Nvp-TAE684
same,drug sensitivity mutant vs wild type (average difference in AUC; top left quadrant of volcano plot),IDH2,NVP-TAE684
same,drug sensitivity mutant vs wild type (average difference in AUC; top left quadrant of volcano plot),IDH2:FLT3,NVP-TAE684
same,drug sensitivity mutant vs wild type (average difference in AUC; top left quadrant of volcano plot),NPM1,NVP-TAE684
same,drug sensitivity mutant vs wild type (average difference in AUC; top left quadrant of volcano plot),NPM1:FLT3,NVP-TAE684
same,drug sensitivity mutant vs wild type (average difference in AUC; top left quadrant of volcano plot),NPM1:FLT3_ITD,nvp-tae684
same,drug sensitivity mutant vs wild type (average difference in AUC; top left quadrant of volcano plot),NPM1:FLT3_ITD:DNMT3A,NVP-TAE684
same,drug sensitivity mutant vs wild type (average difference in AUC; top left quadrant of volcano plot),NPM1:IDH2,NVP-TAE684
same,drug sensitivity mutant vs wild type (average difference in AUC; top left quadrant of volcano plot),NPM1:SRSF2,nvp-TAE684
same,drug sensitivity mutant vs wild type (average difference in AUC; top left quadrant of volcano plot),NPM1:SRSF2:IDH2,NVP-
COc1cc2nccc(Oc3ccc(NC(=O)NC4CC4)c(Cl)c3)c2cc1C(N)=O [Lenvatinib],drug sensitivity mutant vs wild type (average difference in AUC; top left quadrant of volcano plot),DNMT3A,Lenvatinib
same,drug sensitivity mutant vs wild type (average difference in AUC; top left quadrant of volcano plot),FLT3_ITD,lanvatinib
same,drug sensitivity mutant vs wild type (average difference in AUC; top left quadrant of volcano plot),IDH2,Lenvatinib
same,drug sensitivity mutant vs wild type (average difference in AUC; top left quadrant of volcano plot),NPM1,Levatinib
same,drug sensitivity mutant vs wild type (average difference in AUC; top left quadrant of volcano plot),NPM1:DNMT3A,Lenvatinib
same,drug sensitivity mutant vs wild type (average difference in AUC; top left quadrant of volcano plot),NPM1:DNMT3A:FLT3,lenvantinib
same,drug sensitivity mutant vs wild type (average difference in AUC; top left quadrant of volcano plot),NPM1:FLT3_ITD,lenvatinib
same,drug sensitivity mutant vs wild type (average difference in AUC; top left quadrant of volcano plot),NPM1:IDH2,lenvatinib
same,drug sensitivity mutant vs wild type (average difference in AUC; top left quadrant of volcano plot),NPM1:SRSF2,lenvatinib
same,drug sensitivity mutant vs wild type (average difference in AUC; top left quadrant of volcano plot),NPM1:TET2: DNMT3A,Lenvatinib
"c1cn2cc(-c3ccc4cn[nH]c4c3)nc(Nc3ccc(N4CCOCC4)cc3)c2n1 [Entospletinib, 6-(1H-indazol-6-yl)-N-(4-morpholin-4-ylphenyl)imidazo[1,2-a]pyrazin-8-amine]",drug sensitivity mutant vs wild type (average difference in AUC; top left quadrant of volcano plot),DNMT3A,Entospletinib
same,drug sensitivity mutant vs wild type (average difference in AUC; top left quadrant of volcano plot),DNMT3A:IDH2,Entospletinib (GS-9973)
same,drug sensitivity mutant vs wild type (average difference in AUC; top left quadrant of volcano plot),IDH2,Entospletinib
same,drug sensitivity mutant vs wild type (average difference in AUC; top left quadrant of volcano plot),NPM1,Entospletinib
same,drug sensitivity mutant vs wild type (average difference in AUC; top left quadrant of volcano plot),NPM1:DNMT3A,Entospletinib
same,drug sensitivity mutant vs wild type (average difference in AUC; top left quadrant of volcano plot),NPM1:IDH1,entospletinib
same,drug sensitivity mutant vs wild type (average difference in AUC; top left quadrant of volcano plot),NPM1:IDH2,entospetinib
same,drug sensitivity mutant vs wild type (average difference in AUC; top left quadrant of volcano plot),NPM1:SRSF2,entospetinib
same,drug sensitivity mutant vs wild type (average difference in AUC; top left quadrant of volcano plot),NPM1:TET2: DNMT3A,Entospetinib
same,pattern of drug sensitivity,cases with FLT3-ITD and NPM1,similarly significant pattern of sensitivity
